Assay results taken from patent publication US20110071072A1, “Antifungal Bone Cements” (Georgetown University, A Congressionally Chartered …, priority 2009, published 2011).
Numbered stars: 1 amine (or outer) side, 2 acyl side, 3 side chain; on linkers, the order of the positions; unused ones are H or OH. Bridge positions count the residues as written; N and C are the ends. Square brackets hold non-standard residues; d marks the D form. Peptide text beside a SMILES is read from it. * marks the point of attachment. hTyr(3S-OH,4S-OH,3'-OSO3H) = N[C@H](C(=O)O)[C@H](O)[C@@H](O)c1ccc(O)c(OS(=O)(=O)O)c1; Orn(4R-OH,5R-OH) = O=C([C@H](C[C@@H](O)[C@@H](O)N[*:3])N[*:1])[*:2]; Pro(3S-OH,4S-Me) = C[C@H]1CN[C@H](C(=O)O)[C@H]1O; X1 = CCCCCOc1ccc(-c2cc(-c3ccc(C(=O)*)cc3)no2)cc1; Gln(3R-OH) = NC(=O)C[C@@H](O)[C@H](N)C(=O)O; Hyp = O=C(O)[C@@H]1C[C@@H](O)CN1

Assays:
C. albicans [1] = test: Growth inhibition by PM-cement or hydroxyapatite (HA) infiltrated with micafungin or anidulafungin (FIG. 2); assay type: cell-based, Candida albicans
Method: FIG. 2 is a graph showing comparisons of micafungin (MIC) and anidulafungin (ANA) infiltrated in hydrozyapatite (HA) or polymethylmethacrylate (PM)-cement and their inhibitory activity against C. albicans.
Both PM-cement and hydroxyapatite (HA) infiltrated with either micafungin or anidulafungin were evaluated. […] The results again indicated the superiority of micafungin (especially the longevity or diffusion of the drug) regardless of whether the drug was infiltrated in HA or PM cement.

C. albicans [2] = test: Agar diffusion: zone of growth inhibition around PM-cement discs impregnated with antifungal; assay type: cell-based; settings: for duration of activity / inhibitory activity compared with voriconazole: PM cement discs; for duration of activity: days of incubation; for inhibitory activity compared with voriconazole: in words; for time up to which anti-candida activity was detected: cement discs, post-incubation
Method: The echinocandin antifungal micafungin or the triazole voriconazole were mixed with polymethylmethacrylate and a bone cement was formed using the mixture. C. albicans was grown overnight in T-soy broth, washed in buffer, then 1000 C. albicans yeast cells were added to the agar surface of a medium containing RPMI, MOPS, and 2% glucose, which was prepared by adding the latter to autoclaved agar after the agar had cooled for 15 min. Cement discs containing micafungin (100 mg) or voriconazole (400 mg) were prepared as described below. Each cement-antifungal disc was placed on the agar culture medium containing the organism.
The antifungal-cement mix (Smartset HV®, bone cement, DePuy (Warsaw, Ind.)) was prepared as follows under sterile conditions: the polymethylmethacrylate (PM) cement powder (part 1) was first mixed thoroughly with each drug and, then 18.88 g of bone cement liquid (part 2) was added to the mixture. Discs of cement-drug were prepared quickly before the cement hardened. Each cement disc (14 mm) was then placed in the center of inoculated agar cultures in 60 mm petri dishes. The plates were then incubated at 30° C. and zones of inhibition were measured every 24 hrs until activity was not observed (usually 6 days). The same discs were removed daily and placed on fresh agar medium that was inoculated similarly.
At 24 hrs, cement discs containing the antifungal micafungin were about 2.5-fold greater in activity that voriconazole. Further, the activity of micafungin was still detected at 120 hrs post-incubation, while no activity was detected after 24 hrs with voriconazole. Data were plotted as mm growth inhibition versus days of incubation (Table 1). The plates were digitally photographed using image processing software.

| SMILES | in vitro anti-Candida albicans activity, comparison (C. albicans [1]; HA or PM cement, in words) | persistence of activity (C. albicans [1]; drug infiltrated in HA or PM cement) [days] | duration of activity (C. albicans [2]) [days] | inhibitory activity compared with voriconazole (C. albicans [2]) | inhibitory activity compared with voriconazole (C. albicans [2]; listed as Micafungin) | activity of cement discs relative to voriconazole discs (C. albicans [2]; at 24 hrs, micafungin 100 mg vs voriconazole 400 mg discs) | time up to which anti-candida activity was detected (C. albicans [2]) [h] | duration of activity (C. albicans [2]; listed as voriconzole) [days] |
| --- | --- | --- | --- | --- | --- | --- | --- | --- |
| CCCCCOc1ccc(-c2cc(-c3ccc(C(=O)N[C@H]4C[C@@H](O)[C@@H](O)NC(=O)[C@@H]5[C@@H](O)[C@@H](C)CN5C(=O)[C@H]([C@H](O)CC(N)=O)NC(=O)[C@H]([C@H](O)[C@@H](O)c5ccc(O)c(OS(=O)(=O)O)c5)NC(=O)[C@@H]5C[C@@H](O)CN5C(=O)[C@H]([C@@H](C)O)NC4=O)cc3)no2)cc1 [micafungin] (X1-[Orn(4R-OH,5R-OH)]T[Hyp][hTyr(3S-OH,4S-OH,3'-OSO3H)][Gln(3R-OH)][Pro(3S-OH,4S-Me)]; lactam 1-C) | significantly greater than that of voriconazole and anidulafungin | 6 to 7 | ≥ 6 | much greater | superior and longer lasting | about 2.5 fold | ≥ 120 |  |
| C[C@@H](c1ncncc1F)[C@](O)(Cn1cncn1)c1ccc(F)cc1F [voriconazole] |  |  | 1 |  |  |  | ≤ 24 | ≤ 1 |
